For data set [1], the system named is CBZ-reactive T cells. In words: Cross-reactivity of CBZ-reactive T cells (interferon-γ ELISPOT). Type of data set: cell-based, human. The settings on record: T cells of HLA-B*1502 patients with CBZ-induced SJS/TEN, autologous B cells, 24 hours. From the text: Two patients having CBZ-induced SJS/TEN were recruited from Chang Gung Memorial Hospital. […] Genomic DNAs were extracted from the patients using […] DNA purification system (Gentra systems, Minnesota, USA). The HLA-B alleles were verified using sequence-specific oligonucleotide reverse line blots (DYNAL Biotech Ltd., Bromborough, U.K.).
Peripheral blood mononuclear cells (PBMCs) were isolated from the patients by Ficoll-Isopaque (Pharmacia Fine Chemicals, Piscataway, N.J.) density gradient centrifugation. A portion of the PBMCs were transformed by Epstein-Bar virus to establish autologous B-cell lines.
T cells reactive to CBZ were expanded as described below. PBMCs prepared from the patients were cultured in complete RPMI medium containing 10% heat-inactivated human serum, IL-2 (25 U/ml), and CBZ (25 μg/ml)(Sigma) in a 37° C., 5% CO2 incubator for 7 days. The T cells were then expanded by co-culturing with irradiated (50Gy) autologous B cells in the presence of CBZ for 10 days. After 2 cycles of the above co-culturing procedure, the CBZ-activated T cells were collected and subjected to ELISPOT assays (eBioscience).
The CBZ-reactive T cells were tested for their cross-reactivity to compounds e.g., CBZ 10, 11-epoxide, Oxcarbazepine (brand name: trileptal), Licarbazepine, and sunlindac. Briefly, T lymphocytes (5×10^3 cells) were mixed with autologous B cells (5×10^4 cells) in 200 μl RPMI medium containing 10% FBS in the presence or absence of a test compound. The cells were then incubated for 24 hours in the wells of an ELISPOT plate coated with anti-interferon γ antibodies (Millipore). After incubation, the supernatant of the cell culture was collected and interferon-γ contained therein was detected using antibody-mediated methods known in the art.

Data set [2] has as its system HLA-Cw*0801. In words: Marker of B*1502 ancestral haplotype and ADRs: HLA-Cw*0801. From the text:
(§1) All of these patients were subjected to genotyping. Briefly, reagents for performing a reverse line blot assay using sequence-specific oligonucleotide (SSO) were purchased from DYNAL Biotech Ltd. (Bromborough, UK). PCR products were generated using biotinylated primers for the second and the third exons of the HLA class I or class II loci, and then hybridized to a line blot of SSO of probes immobilized on a nylon membrane. The presence of biotinylated PCR product bound to a specific probe is detected using streptavidin-horseradish peroxidase (HRP) and a chromogenic, soluble substrate to produce a blue “line” at the position of the positive probe. The probe reactivity pattern was interpreted by the genotyping software Dynal RELI™ SSO (DYNAL Biotech Ltd.; Bromborough, UK). Potential ambiguities were further resolved by sequence-based typing and DNA sequencing performed according to the IHWG Technical Manual (International Histocompatibility Working Group), see Genomic Analysis of the Human MHC DNABased Typing for HLA Alleles and Linked Polymorphisms. Marcel G. J. Tilanus, Editor in Chief, ISBN No. 0-945278-02-0.

In data set [3] the test system is HLA-B*5801. In words: Association of HLA-B*5801 with allopurinol-induced severe ADRs (HSS, SJS, TEN). The settings on record: for B*5801 frequency, Allopurinol-tolerant: n = 98.
Data set [4] relates to A*3303. The conditions noted are these: number (%).
Data set [5] deals with HLA-Cw*0806. In words: Marker of B*1502 ancestral haplotype and ADRs: HLA-Cw*0806.
Excerpt: as §1

A short description of data set [6]: Onset of allopurinol-induced ADR symptoms. It is filed as in vivo, human.
Data set [7] is described as follows: Clinical phenotype of drug-induced cutaneous ADR in individual patients. It is filed as in vivo, human. As to the method: A total of 238 ADR patients (Mongoloids or Mongoloid descendents) were recruited either from Chang Gung Memorial Hospital or from several other medical centers throughout Taiwan for this study. Their drug-taking history including dosage and duration, and the phenotypes of ADRs were recorded. The diagnostic criteria of clinical morphology were defined according to Roujeau, J. Invest Dermatol., 102(6):28S-30S, 1994. […] SJS, overlap SJS-TEN and TEN are collectively referred to as SJS/TEN.

Data set [8] relates to HLA-B*1502. In words: Association of HLA-B*1502 with drug-induced SJS/TEN (HLA genotyping, case-control). On the set-up: species or system human. The conditions noted are these: for number of HLA-B*1502-positive SJS/TEN patients who received the drug: among 17 carriers of 53 SJS/TEN patients who received other drugs. How it is done: 73 tegretol-tolerant patients were included as controls. […] All of these patients were subjected to genotyping. […] SSO (DYNAL Biotech Ltd.; Bromborough, UK). […] Marcel G. J. […] To some patients, SNP genotyping was performed using high throughput MALDI-TOF mass spectrometry. Briefly, primers and probes were designed using the Spectro[…] software (Sequenom, San Diego, Calif., USA). Multiplex polymerase chain reactions (PCR) were performed, the unincorporated dNTPs were dephosphorylated using the shrimp alkaline phosphatase (Hoffman-LaRoche, Basel, Switzerland), followed by primer extension. The purified primer extension reaction was spotted onto a 384-element silicon chip (SpectroCHIP, Sequenom), analyzed using a Bruker Biflex III MALDI-TOF SpectroREADER mass spectrometer (Sequenom) and spectra processed with […] (Sequenom).

In data set [9] the test system is Cw*0302. The conditions noted are these: number (%).
Data set [10] deals with DRB1*0301. The conditions noted are these: number (%).
For data set [11], the system named is HLA-A*1101.
Excerpt: as §1

For data set [12], the system named is HLA-DRB1*1202.
Excerpt: as §1

Data set [13] deals with HLA-B*4601. In words: Association of HLA-B*4601 with CBZ-induced milder cutaneous ADRs (HLA genotyping). On the set-up: species or system human. From the text: 73 tegretol-tolerant patients were included as controls. Volunteers from the general population of Taiwanese (n=94; age range: 20 to 80 years) were also recruited.
All of these patients were subjected to genotyping.
In contrast, the allele was only found in 26% (19/73) of the CBZ-tolerant group.

Where [14] appears, read: relative to the allopurinol-tolerant group.

“And” between values parts separate entries of the source, which are not always exact repeats. Equal values may be shown once.

Take `NC(=O)N1c2ccccc2C2OC2c2ccccc21` (stereo not drawn) [CBZ 10, 11-epoxide]: in [1], the “cross-reactivity of CBZ-reactive T cells to the compound” value is “cross-reactive”.
On the same count and under the same terms, under `NC(=O)N1c2ccccc2CC(=O)c2ccccc21` [Oxcarbazepine, 5H-Dibenz[b,f]azepine-5-carboxamide, 10,11-dihydro-10-oxo] stands “cross-reactive”; under `CC1=C(CC(=O)O)c2cc(F)ccc2/C1=C\c1ccc([S+](C)[O-])cc1` (stereo not drawn) [Sulindac], “not”.
With `Oc1ncnc2[nH]ncc12` [allopurinol, Allopurinol], in data set [2] (n = 17, number (%)), the “HLA-Cw*0801 frequency, Allopurinol SJS/TEN” value was 2 (11.7%). In [3], the “sensitivity of HLA-B*5801 for allopurinol-induced severe ADRs” value came to 100%. Moreover, in data set [3], the “specificity of HLA-B*5801 for allopurinol-induced severe ADRs” value came out at 84%. For the same compound, in [3] (31 ADR patients vs 93 normal subjects), the “Odds ratio (Allopurinol-ADRs/Normal), B*5801” value is 241. The “Odds ratio (Allopurinol-ADRs/Tolerant), B*5801” value in [3] (31 ADR patients vs 98 tolerant patients) stood at 315. Moreover, the “B*5801 frequency, Allopurinol-ADRs (severe ADRs)” value in data set [3] (n = 31, carriers, number (%)) is reported as 31 (100%). In addition, the “B*5801 frequency, Allopurinol-tolerant” value is reported as 16 (16.3%) in data set [3] (carriers, number (%)) and 16 (16.3%)^1 in data set [3] (carriers, number (%), listed as Allopurinol). The “negative predictive value, absence of HLA-B*5801, allopurinol-induced ADRs” value in [3] (setting [14]) is reported as 100%. Besides, the “positive predictive value, presence of HLA-B*5801, allopurinol-induced ADRs” value in data set [3] (setting [14]) is recorded as 66%. Besides, the “A*3303 frequency, Allopurinol-ADRs” value in data set [4] (n = 31) is on record as 20 (64.5%). Moreover, the “A*3303 frequency, Allopurinol-tolerant” value in data set [4] (n = 98) is 18 (18.4%). In addition, the “HLA-Cw*0806 frequency, Allopurinol SJS/TEN” value in data set [5] (n = 17, number (%)) is given as 0 (0%). Further, in [6] (2 patients), the “second attack after re-exposure to allopurinol” value is listed as not above 2 days. In [6] (all of the 31 patients), the “onset of HSS symptoms after start of allopurinol exposure” value is reported as not above 2 months. The Phenotype entry in data set [7] (individual patient, cutaneous ADR to the suspected drug) was “SJS (11×) and SJS and vasculitis on leg and SJS, and lichenoid and TEN”; in data set [7] (individual patient, cutaneous ADR to the suspected drug, listed as Allopurinol), “SJS”; in [7] (individual patient, cutaneous ADR to the suspected drug, listed as alloprinol), “SJS”. The “number of HLA-B*1502-positive SJS/TEN patients who received the drug” value in data set [8] was determined as 2. Also, the “HLA-B*1502 frequency, Allopurinol SJS/TEN” value in data set [8] (n = 17, carriers, number (%)) is listed as 1 (5.8%). In addition, the “Cw*0302 frequency, Allopurinol-ADRs” value in data set [9] (n = 31) is recorded as 29 (93.5%). In addition, in [9] (n = 98), the “Cw*0302 frequency, Allopurinol-tolerant” value was 15 (15.3%). For the same compound, the “DRB1*0301 frequency, Allopurinol-ADRs” value in [10] (n = 31) was 21 (67.7%). Moreover, the “DRB1*0301 frequency, Allopurinol-tolerant” value in [10] (n = 98) is 14 (14.3%).
For `CC1(C)S[C@@H]2[C@H](NC(=O)[C@H](N)c3ccc(O)cc3)C(=O)N2[C@H]1C(=O)O` [amoxicillin], the “number of HLA-B*1502-positive SJS/TEN patients who received the drug” value in [8] is reported as 2.
As to “(S)-(−)-10-acetoxy-10,11- dihydro-5H-dibenzo/b,f/ azepine-5-carboxamide [Licarbazepine]”, the “cross-reactivity of CBZ-reactive T cells to the compound” value in [1] was “cross-reactive”.
For the compound carbamazepine [CBZ], in [2], the “HLA-Cw*0801 frequency, CBZ SJS/TEN” value is listed as 38 (90%) and the “HLA-Cw*0801 frequency, CBZ Tolerant” value is 10 (13.7%). Moreover, in data set [5], the “HLA-Cw*0806 frequency, CBZ SJS/TEN” value is 3 (7.1%) and the “HLA-Cw*0806 frequency, CBZ Tolerant” value is listed as 0 (0%). For the same compound, the Phenotype entry in data set [7] (human, in vivo) is recorded as “SJS”. In data set [8] (N = 73, carriers, number (%)), the “HLA-B*1502 frequency, CBZ-tolerant patients” value was 3 (4.1%). Further, the “HLA-B*1502 frequency, patients with CBZ-induced SJS/TEN” value in data set [8] (Taiwanese patients, N = 42, carriers, number (%)) is given as 42 (100%). The “HLA-B*1502 frequency, CBZ Milder ADRs” value in [8] (n = 16, carriers, number (%)) is recorded as 0 (0%). Moreover, in data set [8] (text of Example 3), the “HLA-B*1502 carriers among SJS/TEN patients who received the drug” value came to 100% and the “HLA-B*1502 carriers in the drug-tolerant group” value came out at 4.1%. For the same compound, in data set [8] (tolerant group as control), the “negative predictive value of B*1502 for CBZ-induced SJS/TEN” value is reported as 100%, the “positive predictive value of B*1502 for CBZ-induced SJS/TEN” value is 96.0%, the “sensitivity of B*1502 for CBZ-induced SJS/TEN” value worked out at 100% and the “specificity of B*1502 for CBZ-induced SJS/TEN” value is 95.89%. Further, the “Odds Ratio, B*1502, CBZ-induced SJS/TEN” value in data set [8] (vs Controls1: patients who had milder ADRs other than SJS, N = 142) was 1194.47. For the same compound, in [8] (vs Controls2: general Taiwanese population, N = 94), the “Odds Ratio, B*1502, CBZ-induced SJS/TEN” value came out at 1383.2. Further, the “Odds Ratio, B*1502, CBZ-induced SJS/TEN” value in data set [8] (vs Controls3: CBZ-tolerant patients, N = 73) turned out to be 1712. Moreover, in data set [11], the “HLA-A*1101 frequency, CBZ SJS/TEN” value is 31 (73.8%). Moreover, in data set [12], the “HLA-DRB1*1202 frequency, CBZ SJS/TEN” value was 35 (83.3%). Further, the “HLA-B*4601 carriers among patients with milder reactions to CBZ” value in [13] (10 out of 16) is recorded as 62.5%. Further, in data set [13] (19/73), the “HLA-B*4601 carriers in the CBZ-tolerant group” value came out at 26%. Also, in [13] (vs CBZ-tolerant group), the “odds ratio, B*4601, CBZ-induced milder cutaneous ADRs” value worked out at 4.73.

The values above are taken from patent US7943309B2, “HLA alleles associated with adverse drug reactions and methods for detecting such” (Pharmigene Inc., priority 2006, dated 2011).
